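Assay format: 96-well plates, 48-hour exposure. The concentration for 50% growth inhibition is given as GI50.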 Activity calls are given as the source filed them. Cut-off read from the data, not from the text of the source: active = GI50 up to about 1.1 µM and inactive = higher. Square brackets hold non-standard residues; d marks the D form. Peptide text beside a SMILES is read from it. * marks the point of attachment. Phe(4-NO2) = N[CH](Cc1ccc([N+](=O)[O-])cc1)C(=O)O; Boc = CC(C)(C)OC(=O)*
What was measured:
Assay in all cases: NCI tumour cell line growth inhibition, 48 h
SF-268 = test system: SF-268
OVCAR-3 = test system: OVCAR-3
Hs-578T = test system: Hs-578T
SR = test system: SR
SNB-75 = test system: SNB-75
CAKI-1 = test system: CAKI-1
BT-549 = test system: BT-549
UO-31 = test system: UO-31
NCI-H460 = test system: NCI-H460
DU-145 = test system: DU-145
TK-10 = test system: TK-10
OVCAR-4 = test system: OVCAR-4
Malme-3M = test system: Malme-3M
HOP-92 = test system: HOP-92
NCI-H226 = test system: NCI-H226
HCC 2998 = test system: HCC 2998
SF-539 = test system: SF-539
NCI/ADR-RES = test system: NCI/ADR-RES
A498 = test system: A498
CCRF-CEM = test system: CCRF-CEM

SMILES	GI50 (SF-268)	GI50 (OVCAR-3)	GI50 (Hs-578T)	GI50 (SR)	GI50 (SNB-75)	GI50 (CAKI-1)	GI50 (BT-549)	GI50 (UO-31)	GI50 (NCI-H460)	GI50 (DU-145)	GI50 (TK-10)	GI50 (OVCAR-4)	GI50 (Malme-3M)	GI50 (HOP-92)	GI50 (NCI-H226)	GI50 (HCC 2998)	GI50 (SF-539)	GI50 (NCI/ADR-RES)	GI50 (A498)	GI50 (CCRF-CEM)
Cc1cc(Cl)ccc1OCC(=O)Oc1c(Cl)c(Cl)c(Cl)c(Cl)c1Cl	30.5 µM (inactive)	18.2 µM (inactive)	22.6 µM (inactive)	17.7 µM (inactive)	26.6 µM (inactive)	33 µM (inactive)	35.9 µM (inactive)	17.1 µM (inactive)	22.6 µM (inactive)	22.4 µM (inactive)	30.3 µM (inactive)	27.3 µM (inactive)	19.2 µM (inactive)	17.3 µM (inactive)	20.2 µM (inactive)	25.2 µM (inactive)	38.7 µM (inactive)	25.4 µM (inactive)	25.6 µM (inactive)	–
COc1cccc2c1C(=O)C(=O)c1c-2oc(=O)c2cc(C)cc(OC)c12	17.3 µM (inactive)	15.7 µM (inactive)	19.6 µM (inactive)	8.91 µM (inactive)	22.6 µM (inactive)	67.5 µM (inactive)	13.5 µM (inactive)	35 µM (inactive)	> 75 µM (inactive)	13.6 µM (inactive)	> 75 µM (inactive)	14.9 µM (inactive)	26.9 µM (inactive)	59.2 µM (inactive)	72.8 µM (inactive)	14.5 µM (inactive)	63 µM (inactive)	15.8 µM (inactive)	> 75 µM (inactive)	17.5 µM (inactive)
O=CCCCCCOCc1ccccc1	> 100 µM (inactive)	> 74 µM (inactive)	> 100 µM (inactive)	39.6 µM (inactive)	> 78.2 µM (inactive)	> 45.8 µM (inactive)	> 100 µM (inactive)	> 87.1 µM (inactive)	23.3 µM (inactive)	71.9 µM (inactive)	99.5 µM (inactive)	> 87.5 µM (inactive)	> 67.1 µM (inactive)	> 100 µM (inactive)	> 73.6 µM (inactive)	> 100 µM (inactive)	> 100 µM (inactive)	> 55.8 µM (inactive)	> 100 µM (inactive)	28 µM (inactive)
c1ccc(-c2nnc(SCc3c[nH]c4ccccc34)n2-c2ccccc2)cc1	38.2 µM (inactive)	40.8 µM (inactive)	17.4 µM (inactive)	11.7 µM (inactive)	18.7 µM (inactive)	33.1 µM (inactive)	17.3 µM (inactive)	> 100 µM (inactive)	12.1 µM (inactive)	40.3 µM (inactive)	22.2 µM (inactive)	29.5 µM (inactive)	> 100 µM (inactive)	3.55 µM (inactive)	22.7 µM (inactive)	27.4 µM (inactive)	18.9 µM (inactive)	22.6 µM (inactive)	19.3 µM (inactive)	25.9 µM (inactive)
CC1OC(OC2C(O[C@H]3CC[C@@]4(C)C(=CC[C@H]5[C@@H]6C[C@@H]7O[C@]8(CC[C@@H](C)CO8)[C@@H](C)[C@@H]7[C@@]6(C)CC[C@@H]54)C3)OC(CO)C(O)C2OC2OC(CO)C(O)C(O)C2O)C(O)C(O)C1O (stereo partly drawn)	1.9 µM (inactive)	1.08 µM (active)	1.73 µM (inactive)	> 100 µM (inactive)	2.04 µM (inactive)	3.5 µM (inactive)	2.07 µM (inactive)	1.94 µM (inactive)	2.22 µM (inactive)	2.08 µM (inactive)	1.93 µM (inactive)	1.58 µM (inactive)	1.69 µM (inactive)	1.79 µM (inactive)	2 µM (inactive)	1.65 µM (inactive)	2.15 µM (inactive)	2.24 µM (inactive)	1.44 µM (inactive)	14.3 µM (inactive)
COC1/C=C\OC2(C)Oc3c(C)c(O)c4c(O)c(c(CN(C)C)c(O)c4c3C2=O)NC(=O)/C(C)=C\C=C/C(C)C(O)C(C)C(O)C(C)C(OC(C)=O)C1C (stereo not drawn)	33.3 µM (inactive)	15.4 µM (inactive)	30.7 µM (inactive)	15.7 µM (inactive)	39.3 µM (inactive)	57.1 µM (inactive)	31.2 µM (inactive)	39 µM (inactive)	32.1 µM (inactive)	32.3 µM (inactive)	35.3 µM (inactive)	36.6 µM (inactive)	19.3 µM (inactive)	45 µM (inactive)	> 100 µM (inactive)	20.5 µM (inactive)	17.5 µM (inactive)	> 100 µM (inactive)	> 100 µM (inactive)	–
O=C(Nc1sccc1S(=O)(=O)c1ccc(Cl)cc1)c1ccc(F)cc1F	19.7 µM (inactive)	37.4 µM (inactive)	26.2 µM (inactive)	18.2 µM (inactive)	19.3 µM (inactive)	26.2 µM (inactive)	20.8 µM (inactive)	22.2 µM (inactive)	–	53.1 µM (inactive)	20.9 µM (inactive)	21.2 µM (inactive)	31.9 µM (inactive)	19.5 µM (inactive)	26.7 µM (inactive)	> 100 µM (inactive)	14.3 µM (inactive)	32.3 µM (inactive)	24.2 µM (inactive)	19.2 µM (inactive)
COc1cc2c(cc1OC)C(Cl)C(c1ccc(Br)cc1)=C2Cl (stereo not drawn)	11.1 µM (inactive)	9.84 µM (inactive)	6.19 µM (inactive)	2.62 µM (inactive)	13.3 µM (inactive)	15.1 µM (inactive)	2.31 µM (inactive)	8.65 µM (inactive)	8.32 µM (inactive)	11.3 µM (inactive)	11.4 µM (inactive)	13.8 µM (inactive)	15 µM (inactive)	12.1 µM (inactive)	11.3 µM (inactive)	13.3 µM (inactive)	12.4 µM (inactive)	10.9 µM (inactive)	15.2 µM (inactive)	10.7 µM (inactive)
N/N=C1\C(OC(=O)Nc2ccccc2)=Nc2ccccc21	36.1 µM (inactive)	11.2 µM (inactive)	36.2 µM (inactive)	25.6 µM (inactive)	22.8 µM (inactive)	14.9 µM (inactive)	11.7 µM (inactive)	12.7 µM (inactive)	10.9 µM (inactive)	10.8 µM (inactive)	23 µM (inactive)	12.8 µM (inactive)	13.2 µM (inactive)	15.2 µM (inactive)	16.8 µM (inactive)	15.3 µM (inactive)	15.6 µM (inactive)	30.3 µM (inactive)	17.1 µM (inactive)	–
Cc1cccc(/N=N/c2c(C)nn(C(=O)CC(=O)Nc3ccccc3)c2C)c1	> 100 µM (inactive)	> 100 µM (inactive)	> 100 µM (inactive)	> 100 µM (inactive)	> 100 µM (inactive)	> 100 µM (inactive)	> 100 µM (inactive)	> 100 µM (inactive)	> 100 µM (inactive)	> 100 µM (inactive)	> 100 µM (inactive)	> 100 µM (inactive)	> 100 µM (inactive)	> 100 µM (inactive)	> 100 µM (inactive)	> 100 µM (inactive)	> 100 µM (inactive)	> 100 µM (inactive)	> 100 µM (inactive)	> 100 µM (inactive)
CCN1CCC(O)(c2ccc(Oc3ccc(Cl)cc3)cc2)C(C(=O)c2ccc(Oc3ccc(Cl)cc3)cc2)C1 (stereo not drawn)	17.8 µM (inactive)	–	20.7 µM (inactive)	3.48 µM (inactive)	12.9 µM (inactive)	14.3 µM (inactive)	14.5 µM (inactive)	13.6 µM (inactive)	3.76 µM (inactive)	16.5 µM (inactive)	10.6 µM (inactive)	14.3 µM (inactive)	17.2 µM (inactive)	7.16 µM (inactive)	15 µM (inactive)	12.5 µM (inactive)	15.3 µM (inactive)	17.3 µM (inactive)	8.61 µM (inactive)	3.44 µM (inactive)
Cc1ccc(Nc2nc(=O)[nH]c(=O)[nH]2)cc1N	> 100 µM (inactive)	> 100 µM (inactive)	> 100 µM (inactive)	> 100 µM (inactive)	> 100 µM (inactive)	> 100 µM (inactive)	> 100 µM (inactive)	–	> 100 µM (inactive)	> 100 µM (inactive)	> 100 µM (inactive)	> 100 µM (inactive)	> 100 µM (inactive)	> 100 µM (inactive)	> 100 µM (inactive)	> 100 µM (inactive)	> 100 µM (inactive)	> 100 µM (inactive)	> 100 µM (inactive)	> 100 µM (inactive)
COc1cc(Cn2c(=S)ss/c2=N\C(=S)N(C)C)cc(OC)c1OC	8.93 µM (inactive)	1.89 µM (inactive)	2.7 µM (inactive)	3.42 µM (inactive)	3.77 µM (inactive)	4.57 µM (inactive)	> 20.7 µM (inactive)	24.3 µM (inactive)	4.16 µM (inactive)	> 28.5 µM (inactive)	34.8 µM (inactive)	48.4 µM (inactive)	3.21 µM (inactive)	17.9 µM (inactive)	24.3 µM (inactive)	49.1 µM (inactive)	6.35 µM (inactive)	1.61 µM (inactive)	22.6 µM (inactive)	4.32 µM (inactive)
CNC(=O)CCC(NC(=O)OC(C)(C)C)C(=O)NC(Cc1ccc([N+](=O)[O-])cc1)C(=O)NCC(=O)NC (stereo not drawn) (Boc-Glu(NHMe)-[Phe(4-NO2)]-Gly-NHMe; configuration not given here)	> 100 µM (inactive)	> 100 µM (inactive)	> 100 µM (inactive)	> 100 µM (inactive)	> 100 µM (inactive)	> 100 µM (inactive)	> 100 µM (inactive)	> 100 µM (inactive)	> 100 µM (inactive)	> 100 µM (inactive)	> 100 µM (inactive)	> 100 µM (inactive)	> 100 µM (inactive)	> 100 µM (inactive)	> 100 µM (inactive)	> 100 µM (inactive)	> 100 µM (inactive)	> 100 µM (inactive)	68.2 µM (inactive)	–
